Results reported in ChEMBL document CHEMBL1128571, “Acylshikonin analogues: synthesis and inhibition of DNA topoisomerase-I” (J Med Chem, 1995).
pIC50: −log10 of the molar value.

Each compound was assayed against T1, DNA topoisomerase 1 (Homo sapiens, UniProt P11387) (assay: Inhibitory activity against DNA topoisomerase-1 obtained from Hela cells).
T1 sequence (P11387 whole entry): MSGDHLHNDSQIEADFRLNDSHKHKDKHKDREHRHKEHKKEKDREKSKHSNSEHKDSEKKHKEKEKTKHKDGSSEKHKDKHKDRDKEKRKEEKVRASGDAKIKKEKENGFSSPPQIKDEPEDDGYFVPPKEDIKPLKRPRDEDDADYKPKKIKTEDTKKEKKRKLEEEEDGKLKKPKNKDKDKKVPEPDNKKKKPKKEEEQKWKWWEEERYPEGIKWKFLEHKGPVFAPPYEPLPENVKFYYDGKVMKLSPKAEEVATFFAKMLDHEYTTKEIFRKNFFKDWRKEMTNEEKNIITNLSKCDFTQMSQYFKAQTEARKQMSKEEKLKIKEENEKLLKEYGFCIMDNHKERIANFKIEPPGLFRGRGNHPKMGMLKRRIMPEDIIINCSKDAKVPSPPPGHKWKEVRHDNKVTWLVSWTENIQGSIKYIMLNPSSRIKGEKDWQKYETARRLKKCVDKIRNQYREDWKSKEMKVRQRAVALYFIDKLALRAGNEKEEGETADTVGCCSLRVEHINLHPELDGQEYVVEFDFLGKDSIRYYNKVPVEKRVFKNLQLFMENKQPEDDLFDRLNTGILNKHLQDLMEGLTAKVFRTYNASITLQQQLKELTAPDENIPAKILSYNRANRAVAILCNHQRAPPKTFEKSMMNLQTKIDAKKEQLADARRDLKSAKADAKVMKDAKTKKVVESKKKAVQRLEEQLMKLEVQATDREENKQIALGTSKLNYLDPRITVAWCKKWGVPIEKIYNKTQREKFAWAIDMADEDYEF
Assay type: cell-based
For CCCCC/C=C/C/C=C/C/C=C/CCCCC(=O)O[C@H](CC=C(C)C)C1=CC(=O)c2c(O)ccc(O)c2C1=O, the pIC50 was under 3.20.
In the case of CCCCCCCCCC(=O)O[C@H](CC=C(C)C)C1=CC(=O)c2c(O)ccc(O)c2C1=O, the pIC50 was under 3.20.
With CC(C)=CC[C@@H](OC(=O)c1ccccc1)C1=CC(=O)c2c(O)ccc(O)c2C1=O the pIC50 was 3.82.
Work on CC(C)=CC[C@@H](OC(=O)\C=C(C)/C=C/C=C(C)/C=C/C1=C(C)CCCC1(C)C)C1=CC(=O)c2c(O)ccc(O)c2C1=O yielded a pIC50 of under 3.20.
CC(=O)O[C@H](CC=C(C)C)C1=CC(=O)c2c(O)ccc(O)c2C1=O [ACETYLSHIKONIN] gave a pIC50 of 4.35.
Work on CC/C=C/CC(=O)O[C@H](CC=C(C)C)C1=CC(=O)c2c(O)ccc(O)c2C1=O yielded a pIC50 of 3.82.
Compound CCCCCCCCC(=O)O[C@H](CC=C(C)C)C1=CC(=O)c2c(O)ccc(O)c2C1=O has a pIC50 of under 3.20.
In the case of CC(C)=CC[C@@H](OC(=O)C=C(C)C)C1=CC(=O)c2c(O)ccc(O)c2C1=O [DIMETHYLACRYLSHIKONIN], the pIC50 was 4.11.
CCCC(=O)O[C@H](CC=C(C)C)C1=CC(=O)c2c(O)ccc(O)c2C1=O was tested, and the pIC50 was 3.84.
For CCC/C=C/C(=O)O[C@H](CC=C(C)C)C1=CC(=O)c2c(O)ccc(O)c2C1=O, the pIC50 was 3.82.
C=CCCCCC(=O)O[C@H](CC=C(C)C)C1=CC(=O)c2c(O)ccc(O)c2C1=O was tested, and the pIC50 was 3.60.
Work on CC/C=C/C(=O)O[C@H](CC=C(C)C)C1=CC(=O)c2c(O)ccc(O)c2C1=O yielded a pIC50 of 4.10.
Compound C/C=C/C=C/C(=O)O[C@H](CC=C(C)C)C1=CC(=O)c2c(O)ccc(O)c2C1=O has a pIC50 of 3.89.
CCC(=O)O[C@H](CC=C(C)C)C1=CC(=O)c2c(O)ccc(O)c2C1=O was tested, and the pIC50 was 4.36.
For CCCCC/C=C/C/C=C/CCCCCCCC(=O)O[C@H](CC=C(C)C)C1=CC(=O)c2c(O)ccc(O)c2C1=O, the pIC50 was under 3.20.
For CC(C)=CC[C@@H](OC(=O)/C=C(C)/C=C/C=C(C)/C=C/C1=C(C)CCCC1(C)C)C1=CC(=O)c2c(O)ccc(O)c2C1=O, the pIC50 was under 3.20.
Compound CC(C)=CC[C@@H](OC(=O)CCl)C1=CC(=O)c2c(O)ccc(O)c2C1=O has a pIC50 of 3.86.
Work on CC(C)=CC[C@@H](OC(=O)Cc1ccccc1)C1=CC(=O)c2c(O)ccc(O)c2C1=O yielded a pIC50 of 3.65.
Work on CCCCCCC(=O)O[C@H](CC=C(C)C)C1=CC(=O)c2c(O)ccc(O)c2C1=O yielded a pIC50 of 3.20.
C=CCCC(=O)O[C@H](CC=C(C)C)C1=CC(=O)c2c(O)ccc(O)c2C1=O gave a pIC50 of 4.40.
Compound CC(C)=CC[C@@H](OC(=O)C(C)C)C1=CC(=O)c2c(O)ccc(O)c2C1=O [ISOBUTYLSHIKONIN] has a pIC50 of 4.08.
Work on CCCCCCCC/C=C/CCCCCCCC(=O)O[C@H](CC=C(C)C)C1=CC(=O)c2c(O)ccc(O)c2C1=O yielded a pIC50 of under 3.20.
In the case of CCCCCC(=O)O[C@H](CC=C(C)C)C1=CC(=O)c2c(O)ccc(O)c2C1=O, the pIC50 was 3.68.
With CCCCC(=O)O[C@H](CC=C(C)C)C1=CC(=O)c2c(O)ccc(O)c2C1=O the pIC50 was 3.79.
CC(C)=CC[C@@H](O)C1=CC(=O)c2c(O)ccc(O)c2C1=O [SHIKONIN] gave a pIC50 of 3.68.
With CCCCCCCCCCCC(=O)O[C@H](CC=C(C)C)C1=CC(=O)c2c(O)ccc(O)c2C1=O the pIC50 was under 3.20.
CC(C)=CC[C@@H](OC(=O)C(c1ccccc1)c1ccccc1)C1=CC(=O)c2c(O)ccc(O)c2C1=O gave a pIC50 of under 3.20.
Compound CCCCCCCCCCCCCCCC(=O)O[C@H](CC=C(C)C)C1=CC(=O)c2c(O)ccc(O)c2C1=O has a pIC50 of under 3.20.
Compound CCCCCCCCCCCCCCCCCC(=O)O[C@H](CC=C(C)C)C1=CC(=O)c2c(O)ccc(O)c2C1=O has a pIC50 of under 3.20.
In the case of CC(C)=CC[C@@H](OC(=O)C(Cl)(Cl)Cl)C1=CC(=O)c2c(O)ccc(O)c2C1=O, the pIC50 was 3.94.
In the case of CCCCCCCC(=O)O[C@H](CC=C(C)C)C1=CC(=O)c2c(O)ccc(O)c2C1=O, the pIC50 was under 3.20.
Work on C=CCC/C=C/C(=O)O[C@H](CC=C(C)C)C1=CC(=O)c2c(O)ccc(O)c2C1=O yielded a pIC50 of 3.90.
